Broadly, the logP is the decadic logarithm of the partition coefficient of the neutral form, usually between octanol and water. Read a high logP as a more lipophilic compound. As usually defined, the solubility is the dissolved amount per volume that the medium holds.

Converted amounts (≈) assume the structure as drawn.

Conditions in one data set: not given
In the case of `NS(=O)(=O)c1nn2c(=Nc3ccc(F)cc3)snc2s1`, the logP worked out at 2.81.
Compound `COc1nc(C)nc(NC(=O)NS(=O)(=O)c2ccccc2Cl)n1` registered a lipophilicity (logP) of 2.
Compound `O=C(OC1C2C=CC1C=C2)c1ccccc1` (stereo unspecified) came in with a lipophilicity (logP) of 3.03.
The compound `Cn1cnc2c(N)ncnc21` gave a logP of -0.03.
Same read-out and setting: for `O=C(O)c1ccc(-c2ccccc2)cc1` the value was 3.75; for `BrCC1CO1` (stereo unspecified), 0.85; for `OCCCNc1ccccc1`, 0.57.
The same measure, in the same setting: for `CCCc1oc(C)cc(=O)c1O` the value was 1.4.
The same measure, in the same setting: with `CC1=C(C(=O)OC(C)C)C(c2cccc([N+](=O)[O-])c2)C(C(=O)OC2CN(C(c3ccccc3)c3ccccc3)C2)=C(N)N1` (stereo unspecified) the figure was 5.18; with `Oc1cccc(N=C=S)c1`, 3.23; with `CNC(N)=S`, -0.69.
With `NC(Cc1ccc(O)c(O)c1)C(=O)OCC1CCCCO1` (stereo unspecified), the logP is 0.47.
`CCCC(=O)OCN1C(=O)NC(c2ccccc2)(c2ccccc2)C1=O` displayed a logP of 3.34.
Still for that read-out and setting: with `CCC(=O)OCC1OC(n2cnc3c(OC)ncnc32)C(OC(=O)CC)C1OC(=O)CC` (stereo unspecified) the figure was 2.75; with `O=C(O)CCCCc1ccccc1`, 2.94; with `ClC=C1C2CC(C(Cl)C2Cl)C1(CCl)C(Cl)Cl` (stereo unspecified), 5.45.
Still for that read-out and setting: for `COP(=S)(OC)Oc1ccccc1` the value was 3.03; for `CCCCC(C)O` (stereo unspecified), 1.76.
`CC(=O)Nc1ccc2c(c1)Cc1cc([N+](=O)[O-])ccc1-2` returned a logP of 3.08.
On the same count and under the same terms, with `O=C1CCC2CCC(=O)N12` the figure was -1.11; with `OCCOc1cccc2ccccc12`, 2.5; with `O=C(OCc1ccccc1)c1ccc(O)cc1`, 3.56.

Still in this data set, the particulars now being: 20 °C.
As for `CCNc1nc(NCC)nc(OC)n1`, the solubility amounted to 16.2 mM (≈ 3.2 mg/mL).
Same read-out and setting: with `N#Cc1cccnc1` the figure was 1300 mM (≈ 135 mg/mL).

Still in this data set, the particulars now being: 22 °C.
The compound `CC(C)Nc1nc(Cl)nc(NC2CC2)n1` displayed a solubility of 0.303 mM (≈ 0.069 mg/mL).

Still in this data set, the particulars now being: 23 °C.
On to `CCOc1cc(OP(=S)(OC)OC)nc(CC)n1`, for which the solubility amounted to 0.137 mM (≈ 0.04 mg/mL).

The same data set, now with this note: 23.0 °C.
On to `C=C1CCC=C(C)CC[C@@H]2[C@@H]1CC2(C)C`, for which the log10 OH rate constant (cm³/molecule/s) is -9.7.

Staying with this data set, now noted: 24 °C.
On to `O=NN1CCCCCC1`, for which the solubility amounted to 99.9 mM (≈ 12.8 mg/mL).

The same data set, now with this note: 24.0 °C.
For the compound `Clc1cccc(-c2cccc(Cl)c2)c1`, the log10 OH rate constant (cm³/molecule/s) is -11.4.

Still in this data set, the particulars now being: 25 °C.
On to `CCCCOC(=O)COc1ccc(Cl)cc1Cl`, for which the solubility is 0.166 mM (≈ 0.046 mg/mL).
`Oc1ccc(Cl)c(Cl)c1` displayed a solubility of 56.8 mM (≈ 9.26 mg/mL).
The same measure, in the same setting: for `FCCl` the value was 151 mM (≈ 10.4 mg/mL); for `C=C(Cl)CCl`, 19.4 mM (≈ 2.15 mg/mL); for `O=C(O)C(Br)Br`, 9690 mM (≈ 2110 mg/mL).
Same read-out and setting: with `Cc1cccc(C)c1` the figure was 1.52 mM (≈ 0.161 mg/mL); with `CC(C)c1ccccc1-c1ccccc1`, 0.00306 mM (≈ 0.0006 mg/mL); with `CC1COCc2cc3c(cc21)C(C)(C)C(C)C3(C)C` (stereo unspecified), 0.00677 mM (≈ 0.00175 mg/mL).
On to `CCCCC(CC)COP(=O)(Oc1ccccc1)Oc1ccccc1` (stereo unspecified), for which the solubility was 0.00524 mM (≈ 0.0019 mg/mL).
For `Nc1ccc(Cl)cc1`, the solubility stood at 30.6 mM (≈ 3.9 mg/mL).
`CCCCC(C=O)CC` (stereo unspecified) returned a solubility of 3.12 mM (≈ 0.4 mg/mL).
The same measure, in the same setting: with `OCC#CCO` the figure was 4340 mM (≈ 374 mg/mL).
Still for that read-out and setting: with `c1ccc2cnncc2c1` the figure was 384 mM (≈ 50 mg/mL); with `Oc1ccccc1Cl`, 87.9 mM (≈ 11.3 mg/mL); with `COC(=O)c1ccccc1C(=O)OC`, 20.6 mM (≈ 4 mg/mL).
Same read-out and setting: for `CC1(C)Cc2cccc([N+](=O)[O-])c2O1` the value was 0.621 mM (≈ 0.12 mg/mL); for `CCCCCCCCCCCCCCCCCO`, 3.12e-05 mM (≈ 8e-06 mg/mL).
Take `Clc1ccc(-c2ccc(Cl)c(Cl)c2Cl)cc1Cl`: the solubility turned out to be 1.04e-05 mM (≈ 3.4e-06 mg/mL).
Still for that read-out and setting: with `CNC(=O)O/N=C/C(C)(C)S(C)=O` (stereo unspecified) the figure was 136 mM (≈ 28 mg/mL); with `NC(N)=O`, 9070 mM (≈ 545 mg/mL); with `O=P(Oc1ccccc1)(Oc1ccccc1)Oc1ccccc1`, 0.00582 mM (≈ 0.0019 mg/mL).
Same read-out and setting: for `COc1cc(Cl)ccc1O` the value was 31.5 mM (≈ 5 mg/mL); for `Brc1ccc(Br)c(-c2cc(Br)c(Br)cc2Br)c1`, 1.88e-07 mM (≈ 1.03e-07 mg/mL).
In turn, `c1ccoc1` had a solubility of 147 mM (≈ 10 mg/mL).
Still for that read-out and setting: for `FC(Cl)C(F)(F)F` (stereo unspecified) the value was 11 mM (≈ 1.5 mg/mL); for `FC(F)(F)C(F)(Cl)Cl`, 0.801 mM (≈ 0.137 mg/mL); for `CCOC`, 832 mM (≈ 50 mg/mL).

The same data set, now with this note: 25.0 °C.
For `CSC(=O)N(C)C`, the log10 OH rate constant (cm³/molecule/s) was -10.9.
Still for that read-out and setting: with `CCSC(=O)N(CC)C1CCCCC1` the figure was -10.5.
The same measure, in the same setting: with `FC(F)C(F)(F)C(F)(F)C(F)F` the figure was -14.3; with `c1ccc2c(c1)Oc1ccccc1O2`, -10.9.
Compound `CCBr` returned a log10 OH rate constant (cm³/molecule/s) of -12.5.
The same measure, in the same setting: with `O=CC(F)(F)F` the figure was -12.2.
The same measure, in the same setting: with `OC(C(F)(F)F)C(F)(F)F` the figure was -13.6; with `COCCOC`, -10.6.

Staying with this data set, now noted: 26 °C.
`CCNc1nc(O)nc(NC(C)C)n1` showed a solubility of 0.0299 mM (≈ 0.0059 mg/mL).

The data set is the same for the next values; noted with them: 30 °C.
`CCOC(=O)CCl` returned a solubility of 158 mM (≈ 19.4 mg/mL).

The values above are taken from the OPERA property sets (Mansouri et al. 2018).
